The record followed here is patent publication US20040110763A1, “Pyrazolopyridine compound and pharmaceutical use thereof” (priority 2000, published 2004).

One data set addresses T1, human A1 receptor (Homo sapiens, UniProt P30542).
T1 sequence (P30542 1-326): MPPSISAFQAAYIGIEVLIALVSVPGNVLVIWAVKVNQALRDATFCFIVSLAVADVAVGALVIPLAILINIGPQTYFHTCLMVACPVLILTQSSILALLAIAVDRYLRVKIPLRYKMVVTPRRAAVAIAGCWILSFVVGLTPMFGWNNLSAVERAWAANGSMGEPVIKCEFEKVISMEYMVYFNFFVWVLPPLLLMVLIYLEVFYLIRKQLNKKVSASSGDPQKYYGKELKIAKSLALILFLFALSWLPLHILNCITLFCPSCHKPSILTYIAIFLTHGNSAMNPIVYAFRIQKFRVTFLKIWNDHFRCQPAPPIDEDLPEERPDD
As to the kind of experiment: Adenosine antagonistic activity, radioligand binding, A1 receptor. Conditions: [3H]DPCPX 4.5 nM. Here is the method: (§1) Test 1: Adenosine Antagonistic Activity
(§2) The adenosine antagonistic activity [Ki(nM)] of the test compound was examined by radioligand binding techniques using 8-cyclopentyl-1,3-dipropylxanthine, [dipropyl-2,3-^3H(N)] ([^3H]DPCPX, 4.5 nM) for human A1 receptor and [^3H]CGS 21680 (20 nM) for human A2a receptor.

The next data set concerns the target human A2a receptor (Homo sapiens, UniProt P29274). As to the kind of experiment: Adenosine antagonistic activity, radioligand binding, A2a receptor. The note with it: [3H]CGS 21680 20 nM. Here is the method: as §1, §2
A further data set deals with ddY mice. The data set is described as follows: Anticatalepsy activity in mouse (haloperidol-induced catalepsy). Format: in vivo. The note with it: 3.2 mg/kg orally, ddY mice n=7; haloperidol 0.32 mg/kg i.p. 30 min after compound; measured 30 min after injection, bar test up to 30 sec. Here is the method:
Test 2: Anticatalepsy Activity in Mouse
The test compound (3.2 mg/kg) was administered orally with ddY mice (n=7). Then, haloperidol (0.32 mg/kg) was injected intraperitoneally 30 min. after the administration of the compound. Thirty min. after the injection, the cataleptic responses of mice were measured. The forelimbs of each mouse were placed on a 3 cm high, 3 mm wide horizontal bar, and the duration of cataleptic posture was measured for up to 30 sec.

human A2a receptor, sequence (P29274 whole entry): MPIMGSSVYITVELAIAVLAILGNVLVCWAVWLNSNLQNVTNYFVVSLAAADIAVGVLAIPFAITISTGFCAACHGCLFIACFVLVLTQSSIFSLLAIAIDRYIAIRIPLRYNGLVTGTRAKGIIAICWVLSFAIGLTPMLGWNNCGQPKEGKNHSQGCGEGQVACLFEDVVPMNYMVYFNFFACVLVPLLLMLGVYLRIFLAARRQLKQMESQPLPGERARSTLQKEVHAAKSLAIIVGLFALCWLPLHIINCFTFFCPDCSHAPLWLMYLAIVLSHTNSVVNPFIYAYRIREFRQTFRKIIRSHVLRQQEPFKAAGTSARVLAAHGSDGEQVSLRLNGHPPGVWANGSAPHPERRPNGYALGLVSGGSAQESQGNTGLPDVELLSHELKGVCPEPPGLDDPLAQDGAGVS

For `COc1ccn2nc(-c3ccccc3)c(-c3ccc(=O)n(C(C)C)n3)c2c1` [Example 2, 5-Methoxy-3-(3-oxo-2-isopropyl-2,3-dihydropyridazin-6-yl)-2-phenylpyrazolo[1,5-a]pyridine], the melting point lay within 180.5 to 181.5 °C. For the same compound, the affinity on human A1 receptor corresponds to a Ki of 0.15 nM. At human A2a receptor, the affinity corresponds to a Ki of 1.38 nM. For the same compound, in the data set on ddY mice, the “Manifestation rate of catalepsy (number of mouse)” value (“Manifestation rate of catalepsy” below) is 0/7.
The compound `CC(C)n1nc(-c2c(-c3ccccc3)nn3ccc(OCCN(C)C)cc23)ccc1=O` [Example 4, 5-(2-Dimethylamino)ethoxy-3-(3-oxo-2-isopropyl-2,3-dihydropyridazin-6-yl)-2-phenylpyrazolo[1,5-a]pyridine] yielded a melting point of 138 to 139 °C. The Ki at human A1 receptor amounted to 0.98 nM. Also, the affinity on human A2a receptor, expressed as Ki, was 2.35 nM. For the same compound, the “Manifestation rate of catalepsy” value with ddY mice is given as 0/7.
The compound `CC(C)n1nc(-c2c(-c3ccccc3)nn3ccc(Oc4ccccn4)cc23)ccc1=O` [Example 31, 5-(2-pyridinyloxy)-3-(3-oxo-2-isopropyl-2,3-dihydropyridazin-6-yl)-2-phenylpyrazolo[1,5-a]pyridine] had a melting point of 140.5 to 141.5 °C. This compound also had an inhibitory constant (Ki) on human A1 receptor of 0.42 nM. In addition, affinity on human A2a receptor was put at a Ki of 1.44 nM. Besides, the “Manifestation rate of catalepsy” value with ddY mice is reported as 0/7.
On to `CC(C)n1nc(-c2c(-c3ccccc3)nn3ccc(N4CCN(C)CC4)cc23)ccc1=O` [Example 96, 5-(4-methyl-1-piperazinyl)-3-(3-oxo-2-isopropyl-2,3-dihydropyridazin-6-yl)-2-phenylpyrazolo[1,5-a]pyridine], for which the melting point was 170 to 171 °C. In addition, affinity on human A1 receptor was put at a Ki of 0.24 nM. At human A2a receptor, the Ki amounted to 1.28 nM. In the data set on ddY mice, the “Manifestation rate of catalepsy” value is reported as 0/7.
As to `CC(C)n1nc(-c2c(-c3ccccc3)nn3ccc(NC(=O)OC(C)(C)C)cc23)ccc1=O` [Example 145, tert-butyl 3-(3-oxo-2-isopropyl-2,3-dihydropyridazin-6-yl)-2-phenylpyrazolo[1,5-a]pyridin-5-ylcarbamate], the melting point was in the range of 208 to 210 °C. This compound also registered a Ki at human A1 receptor of 0.48 nM. In addition, the affinity on human A2a receptor, expressed as Ki, was 1.03 nM. Besides, the “Manifestation rate of catalepsy” value with ddY mice is listed as 0/7.

As a reminder, the Ki is a measure of affinity in units of concentration, obtained from inhibition or displacement. Lower therefore signals a stronger hold on the target. By melting point is commonly meant the temperature of the solid-liquid transition.
